Experimental data from a compilation of properties of binary mixtures (doi:10.1007/s10765-020-02720-w).

Experiment: xn = mol fraction of the nth substance listed
Conditions: 100 kPa

Structure (SMILES) | viscosity (293.2 K, x2 = 0.91) [mPa·s] | viscosity (293.2 K, x2 = 0.972) [mPa·s] | viscosity (308.19 K, x2 = 0.91) [mPa·s] | viscosity (308.19 K, x2 = 0.972) [mPa·s] | viscosity (338.16 K, x2 = 0.91) [mPa·s] | viscosity (368.13 K, x2 = 0.91) [mPa·s] | viscosity (368.13 K, x2 = 0.972) [mPa·s] | viscosity (293.2 K, x1 = 1) [mPa·s] | viscosity (308.19 K, x1 = 1) [mPa·s] | viscosity (338.16 K, x1 = 1) [mPa·s] | viscosity (368.13 K, x1 = 1) [mPa·s]
C[n+]1ccn(CCC(F)(F)C(F)(F)F)c1.F[P-](F)(F)(F)(F)F + CCCC[n+]1ccn(C)c1.F[P-](F)(F)(F)(F)F | 430 | 370 | 171 | 153 | 46.2 | 17.6 | 16.38 |  |  |  | 
CCCC[n+]1ccn(C)c1.F[P-](F)(F)(F)(F)F + C[n+]1ccn(CCC(F)(F)C(F)(F)F)c1.F[P-](F)(F)(F)(F)F |  |  |  |  |  |  |  | 343 | 144 | 39.5 | 16.34
